Assay results as given in doi:10.1101/2025.05.29.656899v1 (biorxiv, 2025).

Tests used:
Experiment in all cases: glucosylation kinetics, Michaelis-Menten
Type in all cases: biochemical
UGT71C1 = molecular target: T1, UGT71C1 (Arabidopsis thaliana, UniProt O82381); conditions: UDP-glucose donor; phosphate buffer pH 8.0; 30 °C
T1 sequence (O82381 1-481): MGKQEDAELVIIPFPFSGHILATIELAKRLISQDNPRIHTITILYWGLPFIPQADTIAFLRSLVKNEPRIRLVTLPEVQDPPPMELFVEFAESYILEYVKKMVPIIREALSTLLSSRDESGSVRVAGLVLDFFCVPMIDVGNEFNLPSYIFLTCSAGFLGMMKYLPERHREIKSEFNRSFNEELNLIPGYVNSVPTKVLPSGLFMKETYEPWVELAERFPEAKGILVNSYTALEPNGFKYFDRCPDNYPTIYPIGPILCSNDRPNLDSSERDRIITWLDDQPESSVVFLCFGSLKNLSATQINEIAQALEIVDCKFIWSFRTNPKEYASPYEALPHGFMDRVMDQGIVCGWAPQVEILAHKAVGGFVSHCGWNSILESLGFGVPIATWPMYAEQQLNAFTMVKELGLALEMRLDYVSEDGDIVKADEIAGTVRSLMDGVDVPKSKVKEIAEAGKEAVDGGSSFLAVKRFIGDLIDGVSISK

UGT72B68 = molecular target: T2, UGT72B68 (Solanum lycopersicum, UniProt D7S016); conditions: UDP-glucose donor; phosphate buffer pH 8.0; 35 °C
T2 sequence (D7S016 1-476): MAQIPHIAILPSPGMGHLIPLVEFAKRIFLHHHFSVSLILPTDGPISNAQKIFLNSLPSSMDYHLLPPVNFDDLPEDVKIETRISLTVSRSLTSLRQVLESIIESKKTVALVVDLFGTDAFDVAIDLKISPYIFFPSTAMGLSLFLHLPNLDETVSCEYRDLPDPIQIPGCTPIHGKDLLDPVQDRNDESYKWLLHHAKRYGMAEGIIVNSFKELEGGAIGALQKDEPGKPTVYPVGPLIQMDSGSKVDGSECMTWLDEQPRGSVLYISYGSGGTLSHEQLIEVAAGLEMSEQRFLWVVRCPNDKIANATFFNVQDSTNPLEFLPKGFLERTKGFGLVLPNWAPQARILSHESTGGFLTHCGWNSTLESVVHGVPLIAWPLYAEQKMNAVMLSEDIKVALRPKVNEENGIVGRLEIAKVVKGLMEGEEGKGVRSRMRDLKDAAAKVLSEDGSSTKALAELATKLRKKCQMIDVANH

UGT72B19 = molecular target: T3, UGT72B19 (Fagopyrum esculentum, UniProt A0A0A1H7P3); conditions: UDP-glucose donor; phosphate buffer pH 8.0; 39 °C
T3 sequence (A0A0A1H7P3 1-474): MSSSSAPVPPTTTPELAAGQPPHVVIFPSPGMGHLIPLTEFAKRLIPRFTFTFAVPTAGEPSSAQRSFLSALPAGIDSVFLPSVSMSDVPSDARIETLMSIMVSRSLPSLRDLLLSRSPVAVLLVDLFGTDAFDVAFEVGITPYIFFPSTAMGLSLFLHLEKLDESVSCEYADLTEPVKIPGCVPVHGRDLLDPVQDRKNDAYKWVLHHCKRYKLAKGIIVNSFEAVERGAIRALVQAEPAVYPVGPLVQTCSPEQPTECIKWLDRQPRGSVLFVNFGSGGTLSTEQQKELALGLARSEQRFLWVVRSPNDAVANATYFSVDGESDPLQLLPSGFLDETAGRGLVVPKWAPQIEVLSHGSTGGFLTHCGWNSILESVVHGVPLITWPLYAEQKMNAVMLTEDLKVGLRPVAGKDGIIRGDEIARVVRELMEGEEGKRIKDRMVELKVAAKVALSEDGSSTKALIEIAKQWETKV

Work on COC(=O)c1ccccc1N [MANT, methyl anthranilate] yielded a Km (UGT71C1) of 164 ± 22 µM, a Km (UGT72B68) of 347 ± 45.7 µM and a Km (UGT72B19) of 212 ± 19.1 µM.
